PubChem BioAssay AID192 (DTP/NCI, 2004)
Where “and” joins values, the source holds several entries; their conditions need not be identical. Equal entries are not always repeated. Inconclusive results and toxic doses are left out.

Test system: BDF1 mice, B16 melanoma ip, median survival T/C
Assay: NCI In Vivo Anticancer Drug Screen. Data for tumor model B16 Melanoma (intraperitoneal) in B6D2F1 (BDF1) mice
Settings: endpoint: median survival time, higher = longer survival
How it was run: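 Survival or tumor size is measured after treatment of tumor-bearing mice and normalised to the vehicle-treated control group.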

[1] = dose: 12.5 mg/kg/injection, schedule: Q01DX009 (ip), vehicle: Klucel (hydroxypropylcellulose) (HPC)
[2] = dose: 25.0 mg/kg/injection, schedule: Q01DX009 (ip), vehicle: Klucel (hydroxypropylcellulose) (HPC)
[3] = dose: 50.0 mg/kg/injection, schedule: Q01DX009 (ip), vehicle: Klucel (hydroxypropylcellulose) (HPC)
[4] = dose: 6.25 mg/kg/injection, schedule: Q01DX009 (ip), vehicle: saline
[5] = dose: 50.0 mg/kg/injection, schedule: Q01DX009 (ip), vehicle: saline
[6] = dose: 100.0 mg/kg/injection, schedule: Q01DX009 (ip), vehicle: saline
[7] = dose: 2.0 mg/kg/injection, schedule: Q01DX009 (ip), vehicle: Klucel (hydroxypropylcellulose) (HPC)
[8] = dose: 50.0 mg/kg/injection, schedule: Q01DX009 (ip), vehicle: saline with Tween-80
[9] = dose: 100.0 mg/kg/injection, schedule: Q01DX009 (ip), vehicle: saline with Tween-80
[10] = dose: 100.0 mg/kg/injection, schedule: Q04DX003 (ip), vehicle: saline with Tween-80
[11] = dose: 200.0 mg/kg/injection, schedule: Q01DX009 (ip), vehicle: saline with Tween-80
[12] = dose: 200.0 mg/kg/injection, schedule: Q04DX003 (ip), vehicle: saline with Tween-80
[13] = dose: 400.0 mg/kg/injection, schedule: Q04DX003 (ip), vehicle: saline with Tween-80
[14] = dose: 100.0 mg/kg/injection, schedule: Q01DX009 (ip), vehicle: Klucel (hydroxypropylcellulose) (HPC)
[15] = dose: 200.0 mg/kg/injection, schedule: Q01DX009 (ip), vehicle: Klucel (hydroxypropylcellulose) (HPC)
[16] = dose: 400.0 mg/kg/injection, schedule: Q01DX009 (ip), vehicle: Klucel (hydroxypropylcellulose) (HPC)
[17] = dose: 25.0 mg/kg/injection, schedule: Q01DX009 (ip), vehicle: saline with Tween-80
[18] = dose: 400.0 mg/kg/injection, schedule: Q01DX009 (ip), vehicle: saline with Tween-80
[19] = dose: 25.0 mg/kg/injection, schedule: Q01DX009 (ip), vehicle: saline
[20] = dose: 6.25 mg/kg/injection, schedule: Q01DX009 (ip), vehicle: saline with Tween-80
[21] = dose: 12.5 mg/kg/injection, schedule: Q01DX009 (ip), vehicle: saline
[22] = dose: 12.5 mg/kg/injection, schedule: Q01DX009 (ip), vehicle: saline with Tween-80

SMILES: CC(=O)[O][Pb]([O]C(C)=O)([c]1ccccc1)[c]1ccccc1
- T/C (dose: 6.25 mg/kg/injection, schedule: Q01DX009 (ip), vehicle: Klucel (hydroxypropylcellulose) (HPC)): 98 % of control
- T/C [1]: 99 % of control
- T/C [2]: 103 % of control
- T/C [3]: 95 % of control

SMILES: COc1cc(OC)cc(C(O)C(C)NC(C)C)c1 (configuration not stated)
- T/C [4]: 112 % of control
- T/C [5]: 87 % of control
- T/C [6]: 112 % of control

SMILES: CC12CCC(O)CC1CCC1C2CCC2(C)C(C3=CC(=O)OC3)CCC12O (configuration not stated)
- T/C [7]: 105 % of control
- T/C (dose: 4.0 mg/kg/injection, schedule: Q01DX009 (ip), vehicle: Klucel (hydroxypropylcellulose) (HPC)): 96 % of control
- T/C (dose: 8.0 mg/kg/injection, schedule: Q01DX009 (ip), vehicle: Klucel (hydroxypropylcellulose) (HPC)): 98 % of control

SMILES: O=C(NC(CSC(c1ccccc1)c1ccccc1)C(=O)O)OCc1ccccc1 (configuration not stated)
- T/C [2]: 100 % of control
- T/C [3]: 100 % of control

SMILES: C=CCn1c(=S)[nH]c2ccccc2c1=O
- T/C [8]: 96 % of control
- T/C [9]: 96 % of control
- T/C [10]: 105 % of control
- T/C [11]: 93 % of control
- T/C [12]: 94 % of control
- T/C [13]: 92 % of control

SMILES: O=C1c2ccccc2C(=O)c2c3c(cc(NCCNCCO)c21)N(CCO)CCN3
- T/C (dose: 12.5 mg/kg/injection, schedule: Q01DX009 (ip), vehicle: DMSO): 121 % of control
- T/C (dose: 100.0 mg/kg/injection, schedule: Q01DX009 (ip), vehicle: DMSO): 162 % of control
- T/C (dose: 200.0 mg/kg/injection, schedule: Q01DX009 (ip), vehicle: DMSO): 194 % of control

SMILES: Cc1cc(C)c(C(=O)O)c(C)c1Br
- T/C [10]: 102 % of control
- T/C [12]: 97 % of control
- T/C [13]: 100 % of control

SMILES: Cc1ccc(NS(=O)(=O)c2ccc(F)cc2)c(C)c1
- T/C [14]: 106 % of control
- T/C [15]: 110 % of control
- T/C [16]: 93 % of control

SMILES: CC(=O)C1=C(C)NC(C)=C(C(C)=O)C1C
- T/C [8]: 100 % of control
- T/C [9]: 95 % of control
- T/C [11]: 102 % of control

SMILES: C=CCN(C)N=Nc1ccc(C(N)=O)cc1
- T/C [2]: 105 % of control
- T/C [3]: 110 % of control
- T/C [14]: 107 % of control

SMILES: CC(C)CNC(=O)Nc1ccccc1C(F)(F)F
- T/C [17]: 97 % of control
- T/C [8]: 96 % of control
- T/C [9]: 86 % of control and 93 % of control
- T/C [11]: 105 % of control
- T/C [18]: 97 % of control

SMILES: Cc1cccc(NC(=O)COc2ccc(Cl)cc2)c1C
- T/C [19]: 98 % of control
- T/C [5]: 100 % of control
- T/C [9]: 98 % of control
- T/C [6]: 105 % of control

SMILES: Cc1cc(C)[c]([Hg][Cl])c(C)c1
- T/C (dose: 1.5 mg/kg/injection, schedule: Q01DX009 (ip), vehicle: saline with Tween-80): 110 % of control
- T/C (dose: 3.0 mg/kg/injection, schedule: Q01DX009 (ip), vehicle: saline with Tween-80): 98 % of control
- T/C (dose: 6.0 mg/kg/injection, schedule: Q01DX009 (ip), vehicle: saline with Tween-80): 99 % of control
- T/C [20]: 88 % of control

SMILES: O=Cc1ccc(C(=O)O)cc1
- T/C [10]: 93 % of control
- T/C [12]: 93 % of control
- T/C [13]: 86 % of control

SMILES: CC1C=CC(C(N)C(=O)O)O1 (configuration not stated)
- T/C [21]: 97 % of control
- T/C [19]: 92 % of control

SMILES: CCOC(=O)C(C(=O)OCC)N(CC)CC
- T/C [14]: 93 % of control
- T/C [15]: 90 % of control
- T/C [16]: 100 % of control

SMILES: COc1ccc(C(=O)c2cc(OC)c(OC)c(OC)c2)cc1OC
- T/C [14]: 110 % of control
- T/C [9]: 111 % of control
- T/C [15]: 105 % of control
- T/C [11]: 104 % of control
- T/C [16]: 115 % of control
- T/C [18]: 102 % of control

SMILES: COC(=O)C(c1ccccc1)C1CCCCN1 (configuration not stated)
- T/C (dose: 3.12 mg/kg/injection, schedule: Q01DX009 (ip), vehicle: saline): 97 % of control
- T/C [4]: 100 % of control
- T/C [21]: 88 % of control
- T/C [19]: 88 % of control
- T/C [5]: 97 % of control

SMILES: c1ccc(CC2NCCc3c2[nH]c2ccccc32)cc1 (configuration not stated)
- T/C [1]: 105 % of control
- T/C [2]: 91 % of control and 95 % of control
- T/C [3]: 86 % of control and 89 % of control
- T/C [14]: 86 % of control
- T/C [15]: 105 % of control

SMILES: N#CCCCN1CCCCC1
- T/C [4]: 100 % of control
- T/C [21]: 100 % of control
- T/C [19]: 111 % of control

SMILES: S=C(SSSSC(=S)N1CCCCC1)N1CCCCC1
- T/C [14]: 95 % of control
- T/C [15]: 90 % of control
- T/C [16]: 107 % of control

SMILES: CCNCCCCCCNCC
- T/C [21]: 98 % of control
- T/C [19]: 90 % of control

SMILES: Oc1ccc2ccccc2c1N=Nc1ccc(F)cc1
- T/C [9]: 119 % of control
- T/C [18]: 108 % of control

SMILES: Cc1ccc(S(=O)(=O)N=N/C=C2/C=CC=CN2O)cc1
- T/C [2]: 108 % of control
- T/C [3]: 114 % of control
- T/C [14]: 115 % of control

SMILES: CNC(=S)C(=S)NC
- T/C [20]: 102 % of control
- T/C [22]: 120 % of control
- T/C [17]: 107 % of control

SMILES: CC(C)NNC(=O)c1ccccc1N
- T/C [1]: 100 % of control
- T/C [3]: 87 % of control
- T/C [14]: 95 % of control
- T/C [15]: 97 % of control

SMILES: CN1C(=O)CC2(CCN(CCCC(=O)c3ccc(F)cc3)CC2)C1=O
- T/C [20]: 99 % of control
- T/C [22]: 109 % of control
- T/C [17]: 104 % of control
- T/C [8]: 95 % of control

SMILES: Cc1cc(C)cc(OCC2CNC(=O)O2)c1 (configuration not stated)
- T/C [2]: 94 % of control
- T/C [3]: 108 % of control
- T/C [14]: 91 % of control
- T/C [15]: 94 % of control
- T/C [16]: 100 % of control

SMILES: COc1cc2c(c(OC)c1OC)-c1ccc(OC)c(=O)cc1[C@@H](NC(=O)c1ccccc1)CC2
- T/C (dose: 1.0 mg/kg/injection, schedule: Q01DX009 (ip), vehicle: Klucel (hydroxypropylcellulose) (HPC)): 173 % of control and 190 % of control
- T/C [7]: 156 % of control and 161 % of control

SMILES: Cc1ccc(NC(=O)c2ccccc2)c(C)c1
- T/C [8]: 95 % of control
- T/C (dose: 50.0 mg/kg/injection, schedule: Q04DX003 (ip), vehicle: saline with Tween-80): 97 % of control
- T/C [9]: 105 % of control
- T/C [10]: 100 % of control
- T/C [11]: 92 % of control
- T/C [12]: 90 % of control
